In one test the target is T1, USP9x (Mus musculus, UniProt P70398).
T1 construct: endogenous in cells; host or cells: BaF3
The test can be described thus: Cy5-Ub-VME profiling of BaF3 lysates. Type of test: biochemical, murine. The settings on record: BaF3 lysate, approximately 22 bands. As to the method: Panel A is an image of an immunoblot showing representative scans of lysates treated with compound for 15 min then Cy5-Ub-VME. Panel B is a plot of the bands in each lane using Image J processing and analysis software.
Using Image J, the individual lanes from the lysates were plotted as a function of TU50 concentration.

A further test concerns K48-linked ubiquitin. The test can be described thus: K48-linked ubiquitin immunoblot in BaF3/p210 cells. Type of test: cell-based, murine. Particulars: 4 h, various concentrations. As to the method: Panel A is an image of an immunoblot showing BaF3/p210 cells were treated with various concentrations of TU46 for 4 h, and then whole cell lysates were blotted for K48-linked ubiquitin and tubulin. Panel B is an immunoblot showing same lysates as in Panel A were blotted for Bcr-Abl.
The K48-linked ubiquitin levels were also probed in these lysates. […] The increase in K48-linked ubiquitin coincided with the loss of Bcr-Abl (FIG. 8, Panel B). Since USP9x is known to deubiquitinate K48-linked polyubiquitin chains, it is possible that this increase in K48-linked ubiquitin is due to USP9x inhibition. See Park et al., PNAS 110, 9433-9438 (2013).
(In western blotting, separated proteins are transferred to a membrane and probed.)

The test system of a further test is leukemic cell lines. The test can be described thus: NCI-60 human tumor cell line screen. Type of test: cell-based. The settings on record: 48 h treatment. An excerpt: For example, a value of 100 means no growth inhibition and a value of 40 indicates 60% growth inhibition. A value of ‘0’ indicates complete growth inhibition.

Molecules are shown by their SMILES.

T1 sequence (P70398 whole entry): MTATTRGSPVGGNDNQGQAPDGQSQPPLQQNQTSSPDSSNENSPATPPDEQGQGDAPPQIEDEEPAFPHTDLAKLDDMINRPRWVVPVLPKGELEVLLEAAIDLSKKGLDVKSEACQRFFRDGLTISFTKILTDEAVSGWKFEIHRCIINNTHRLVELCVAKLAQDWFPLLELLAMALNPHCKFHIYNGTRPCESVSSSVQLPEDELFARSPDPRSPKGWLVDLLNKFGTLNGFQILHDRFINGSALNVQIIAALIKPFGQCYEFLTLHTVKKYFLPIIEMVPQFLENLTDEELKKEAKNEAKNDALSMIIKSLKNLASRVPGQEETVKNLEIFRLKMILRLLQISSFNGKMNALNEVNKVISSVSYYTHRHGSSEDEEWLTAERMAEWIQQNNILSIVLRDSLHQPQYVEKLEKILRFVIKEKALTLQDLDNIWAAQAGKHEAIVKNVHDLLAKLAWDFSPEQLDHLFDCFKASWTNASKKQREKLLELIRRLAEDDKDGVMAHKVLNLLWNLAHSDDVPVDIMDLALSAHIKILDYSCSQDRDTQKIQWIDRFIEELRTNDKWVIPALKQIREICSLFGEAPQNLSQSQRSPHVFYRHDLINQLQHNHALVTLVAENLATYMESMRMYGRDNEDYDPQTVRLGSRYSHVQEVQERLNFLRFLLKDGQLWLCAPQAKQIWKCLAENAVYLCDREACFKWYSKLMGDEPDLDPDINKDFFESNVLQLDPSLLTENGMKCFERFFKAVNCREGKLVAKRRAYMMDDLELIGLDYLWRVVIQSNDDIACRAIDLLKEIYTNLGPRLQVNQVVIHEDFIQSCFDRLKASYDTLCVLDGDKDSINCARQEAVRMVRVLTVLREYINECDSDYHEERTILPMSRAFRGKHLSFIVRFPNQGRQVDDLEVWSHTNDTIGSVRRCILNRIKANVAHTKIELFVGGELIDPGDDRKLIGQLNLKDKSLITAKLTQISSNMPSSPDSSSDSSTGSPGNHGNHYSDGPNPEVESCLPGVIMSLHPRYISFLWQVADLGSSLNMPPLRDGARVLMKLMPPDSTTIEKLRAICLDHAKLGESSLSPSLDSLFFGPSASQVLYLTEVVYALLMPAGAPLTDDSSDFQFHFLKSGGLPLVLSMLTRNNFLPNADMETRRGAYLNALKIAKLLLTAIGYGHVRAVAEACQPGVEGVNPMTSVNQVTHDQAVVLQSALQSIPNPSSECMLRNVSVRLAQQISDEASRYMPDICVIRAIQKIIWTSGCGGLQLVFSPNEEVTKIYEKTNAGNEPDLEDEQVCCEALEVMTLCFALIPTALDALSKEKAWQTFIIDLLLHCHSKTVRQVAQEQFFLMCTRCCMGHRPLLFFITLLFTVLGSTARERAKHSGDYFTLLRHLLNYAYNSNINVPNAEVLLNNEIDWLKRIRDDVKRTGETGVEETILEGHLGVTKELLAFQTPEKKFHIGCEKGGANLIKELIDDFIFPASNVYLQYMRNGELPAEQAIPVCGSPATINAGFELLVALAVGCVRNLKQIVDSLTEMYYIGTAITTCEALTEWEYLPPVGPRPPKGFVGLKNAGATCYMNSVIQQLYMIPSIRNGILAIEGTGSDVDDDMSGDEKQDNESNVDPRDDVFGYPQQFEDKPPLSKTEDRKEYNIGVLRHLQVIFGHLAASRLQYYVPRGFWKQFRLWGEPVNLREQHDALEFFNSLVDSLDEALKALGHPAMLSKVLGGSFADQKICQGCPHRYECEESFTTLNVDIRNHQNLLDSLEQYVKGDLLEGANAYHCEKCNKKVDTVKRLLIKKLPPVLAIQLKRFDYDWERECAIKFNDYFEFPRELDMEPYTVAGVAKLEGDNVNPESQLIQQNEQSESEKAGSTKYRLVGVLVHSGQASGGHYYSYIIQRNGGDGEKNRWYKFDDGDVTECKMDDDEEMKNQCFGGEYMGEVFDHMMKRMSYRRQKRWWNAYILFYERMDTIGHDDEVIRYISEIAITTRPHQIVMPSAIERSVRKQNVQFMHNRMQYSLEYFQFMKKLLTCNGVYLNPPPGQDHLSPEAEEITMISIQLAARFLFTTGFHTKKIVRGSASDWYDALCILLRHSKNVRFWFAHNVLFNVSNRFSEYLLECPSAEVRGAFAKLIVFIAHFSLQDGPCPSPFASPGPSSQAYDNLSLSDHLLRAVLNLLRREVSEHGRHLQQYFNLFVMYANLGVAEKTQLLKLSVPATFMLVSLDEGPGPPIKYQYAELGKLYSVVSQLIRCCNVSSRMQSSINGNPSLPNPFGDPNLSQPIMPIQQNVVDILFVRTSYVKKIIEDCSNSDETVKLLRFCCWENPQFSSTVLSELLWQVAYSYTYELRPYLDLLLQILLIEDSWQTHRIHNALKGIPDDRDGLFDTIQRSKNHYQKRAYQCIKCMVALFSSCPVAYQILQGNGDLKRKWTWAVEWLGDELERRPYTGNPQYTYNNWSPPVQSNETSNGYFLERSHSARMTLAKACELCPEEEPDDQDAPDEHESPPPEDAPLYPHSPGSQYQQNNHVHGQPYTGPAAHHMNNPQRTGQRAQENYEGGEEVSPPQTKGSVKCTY

`CC(C)(C)OC(=O)NCCc1ccc(N=C=S)cc1` [TU46]: the “selectivity for USP9x among Cy5-Ub-VME reactive bands” value on USP9x was “selective for USP9x”. Besides, in the test on K48-linked ubiquitin, the K48-linked ubiquitin level result is “increases K48-linked ubiquitin”.
Take `CC(C)(C)OC(=O)NCc1cccc(N=C=S)c1` [TU50]: the “selectivity for USP9x among Cy5-Ub-VME reactive bands” value on USP9x was “clearly the most affected”. Besides, in the test with leukemic cell lines, the “lethality in NCI-60 screen” value is listed as “selective lethality against leukemic cell lines”.

Source of the values: patent US10017463B2, “Inhibitors of deubiquitinating proteases” (Brandeis University, priority 2014, dated 2018).
